Values of other authors as cited in patent US20050227966A1 (Wyeth, priority 2004, published 2005).

Columns and labels:
uterine response = conditions: preclinical models of uterine stimulation
[1] = system: ovariectomized rat model of osteopenia
[2] = system: MCF-7 cell line (human breast cancer cell line); conditions: MCF-7 cells

## Cc1c(-c2ccc(O)cc2)n(Cc2ccc(OCCN3CCCCCC3)cc2)c2ccc(O)cc12 [bazedoxifene acetate, 1-[4-(2-azepan-1-yl-ethoxy)-benzyl]-2-(4-hydroxy-phenyl)-3-methyl-1H-indol-5-ol acetic acid]
Uterine response
  stimulation of uterine response: little or no stimulation
[1]
  effect in preventing bone loss and reducing cholesterol: estrogen agonist-like effect
[2]
  estrogen agonist/antagonist behaviour: estrogen antagonist
